How the values were obtained:
Assay type in all cases: in vivo
rice (Oryra sativa) = assay: Test B flooded paddy test; conditions: Flood, 0 to 100 scale where 0 is no effect and 100 is complete control, 13 to 15 d
Outline: (§1)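 Visual ratings (0 none to 100 complete control) are relative to untreated plants, taken 13–15 d after treatment in a greenhouse. Test material went straight into floodwater standing 3 cm above the soil, kept constant, on plants at the 2-leaf stage.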

[1] = tested on: sedge, umbrella (small-flower umbrella sedge, Cyperus difformis); assay: Test B flooded paddy test; conditions: Flood, 0 to 100 scale where 0 is no effect and 100 is complete control, 13 to 15 d
Outline: as §1

[2] = tested on: barnyardgrass (Echinochloa crus-galli); assay: Test B flooded paddy test; conditions: Flood, 0 to 100 scale where 0 is no effect and 100 is complete control, 13 to 15 d
Outline: as §1

[3] = tested on: ducksalad (Heteranthera limosa); assay: Test B flooded paddy test; conditions: Flood, 0 to 100 scale where 0 is no effect and 100 is complete control, 13 to 15 d
Outline: as §1

[4] = tested on: ryegrass, Italian (Italian ryegrass, Lolium multiflorum); assay: Test A postemergence; conditions: postemergence; for Ryegrass, Italian plant response rating: 125 g ai/ha, visual injury rating on 0 to 100 scale (0 no effect, 100 complete control), approx. 10 d; for Plant response rating, Ryegrass, Italian: 500 g ai/ha, 0 to 100 scale, 0 no effect, 100 complete control
Outline: (§2)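 Ratings of 0 (no effect) to 100 (complete control) come from visual comparison with untreated controls roughly 10 d after treatment. Test chemicals, formulated in a non-phytotoxic solvent mixture with surfactant, were applied either as a preemergence directed soil spray on seeded soil or postemergence to one- to two-leaf plants 2 to 10 cm tall.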

Kochia (Kochia scoparia) [5] = assay: Test A postemergence; conditions: postemergence; for Kochia plant response rating: 125 g ai/ha, visual injury rating on 0 to 100 scale (0 no effect, 100 complete control), approx. 10 d; for Plant response rating, Kochia: 500 g ai/ha, 0 to 100 scale, 0 no effect, 100 complete control
Outline: as §2

[6] = tested on: giant foxtail (Setaria faberii); assay: Test A postemergence; conditions: postemergence; for Foxtail, Giant plant response rating: 125 g ai/ha, visual injury rating on 0 to 100 scale (0 no effect, 100 complete control), approx. 10 d; for Plant response rating, Foxtail, Giant: 500 g ai/ha, 0 to 100 scale, 0 no effect, 100 complete control
Outline: as §2

[7] = tested on: pigweed (Amaranthus retroflexus); assay: Test A postemergence; conditions: postemergence; for Pigweed plant response rating: 125 g ai/ha, visual injury rating on 0 to 100 scale (0 no effect, 100 complete control), approx. 10 d; for Plant response rating, Pigweed: 500 g ai/ha, 0 to 100 scale, 0 no effect, 100 complete control
Outline: as §2

[8] = tested on: Galium (catchweed bedstraw, Galium aparine); assay: Test A postemergence; conditions: postemergence; for Galium plant response rating: 125 g ai/ha, visual injury rating on 0 to 100 scale (0 no effect, 100 complete control), approx. 10 d; for Plant response rating, Galium: 500 g ai/ha, 0 to 100 scale, 0 no effect, 100 complete control
Outline: as §2

[9] = tested on: blackgrass (Alopecurus myosuroides); assay: Test A postemergence; conditions: postemergence; for Blackgrass plant response rating: 125 g ai/ha, visual injury rating on 0 to 100 scale (0 no effect, 100 complete control), approx. 10 d; for Plant response rating, Blackgrass: 500 g ai/ha, 0 to 100 scale, 0 no effect, 100 complete control
Outline: as §2

[10] = tested on: barnyardgrass (Echinochloa crus-galli); assay: Test A postemergence; conditions: postemergence; for Barnyardgrass plant response rating: 125 g ai/ha, visual injury rating on 0 to 100 scale (0 no effect, 100 complete control), approx. 10 d; for Plant response rating, Barnyardgrass: 500 g ai/ha, 0 to 100 scale, 0 no effect, 100 complete control
Outline: as §2

[11] = tested on: wheat (Triticum aestivum); assay: Test A postemergence; conditions: postemergence; for Wheat plant response rating: 125 g ai/ha, visual injury rating on 0 to 100 scale (0 no effect, 100 complete control), approx. 10 d; for Plant response rating, Wheat: 500 g ai/ha, 0 to 100 scale, 0 no effect, 100 complete control
Outline: as §2

corn (Zea mays) = assay: Test A postemergence; conditions: postemergence; for Corn plant response rating: 125 g ai/ha, visual injury rating on 0 to 100 scale (0 no effect, 100 complete control), approx. 10 d; for Plant response rating, Corn: 500 g ai/ha, 0 to 100 scale, 0 no effect, 100 complete control
Outline: as §2

[12] = tested on: ragweed (common ragweed, Ambrosia elatior); assay: Test A postemergence; conditions: postemergence; for Ragweed plant response rating: 125 g ai/ha, visual injury rating on 0 to 100 scale (0 no effect, 100 complete control), approx. 10 d; for Plant response rating, Ragweed: 500 g ai/ha, 0 to 100 scale, 0 no effect, 100 complete control
Outline: as §2

[13] = tested on: ryegrass, Italian (Italian ryegrass, Lolium multiflorum); assay: Test A preemergence; conditions: for Plant response rating, Ryegrass, Italian: 125 g ai/ha, preemergence, 0 to 100 scale (0 no effect, 100 complete control); for Ryegrass, Italian plant response rating (0 to 100 scale, 0 is no effect, 100 is complete control): Preemergence, 500 g ai/ha, visual injury approx. 10 d
Outline: as §2

Kochia (Kochia scoparia) [14] = assay: Test A preemergence; conditions: for Plant response rating, Kochia: 125 g ai/ha, preemergence, 0 to 100 scale (0 no effect, 100 complete control); for Kochia plant response rating (0 to 100 scale, 0 is no effect, 100 is complete control): Preemergence, 500 g ai/ha, visual injury approx. 10 d
Outline: as §2

[15] = tested on: giant foxtail (Setaria faberii); assay: Test A preemergence; conditions: for Plant response rating, Foxtail, Giant: 125 g ai/ha, preemergence, 0 to 100 scale (0 no effect, 100 complete control); for Foxtail, Giant plant response rating (0 to 100 scale, 0 is no effect, 100 is complete control): Preemergence, 500 g ai/ha, visual injury approx. 10 d
Outline: as §2

[16] = tested on: pigweed (Amaranthus retroflexus); assay: Test A preemergence; conditions: for Plant response rating, Pigweed: 125 g ai/ha, preemergence, 0 to 100 scale (0 no effect, 100 complete control); for Pigweed plant response rating (0 to 100 scale, 0 is no effect, 100 is complete control): Preemergence, 500 g ai/ha, visual injury approx. 10 d
[17] = tested on: barnyardgrass (Echinochloa crus-galli); assay: Test A preemergence; conditions: for Plant response rating, Barnyardgrass: 125 g ai/ha, preemergence, 0 to 100 scale (0 no effect, 100 complete control); for Barnyardgrass plant response rating (0 to 100 scale, 0 is no effect, 100 is complete control): Preemergence, 500 g ai/ha, visual injury approx. 10 d
Outline: as §2

[18] = tested on: ragweed (common ragweed, Ambrosia elatior); assay: Test A preemergence; conditions: for Plant response rating, Ragweed: 125 g ai/ha, preemergence, 0 to 100 scale (0 no effect, 100 complete control); for Ragweed plant response rating (0 to 100 scale, 0 is no effect, 100 is complete control): Preemergence, 500 g ai/ha, visual injury approx. 10 d
Outline: as §2

Cc1cc(C2CN(C)C(=O)C2C(=O)Nc2ccccc2S(C)(=O)=O)ccc1F (stereo not drawn) [Compound 405]
90: Barnyardgrass plant response rating [10] | Plant response rating, Barnyardgrass [10] | Plant response rating, Foxtail, Giant [15] | Foxtail, Giant plant response rating (0 to 100 scale, 0 is no effect, 100 is complete control) [15] | Plant response rating, Barnyardgrass [17] | Barnyardgrass plant response rating (0 to 100 scale, 0 is no effect, 100 is complete control) [17]
0: Plant response rating, Rice (rice (Oryra sativa); 250 g ai/ha) | Plant response rating, Sedge, Umbrella ([1]; 250 g ai/ha) | Ragweed plant response rating [12] | Plant response rating, Ryegrass, Italian [13]
85: Plant response rating, Ducksalad ([3]; 250 g ai/ha)
40: Kochia plant response rating (Kochia (Kochia scoparia) [5]) | Pigweed plant response rating [7]
80: Foxtail, Giant plant response rating [6] | Plant response rating, Foxtail, Giant [6] | Plant response rating, Wheat [11] | Plant response rating, Corn (corn (Zea mays))
30: Ryegrass, Italian plant response rating [4] | Corn plant response rating (corn (Zea mays)) | Ryegrass, Italian plant response rating (0 to 100 scale, 0 is no effect, 100 is complete control) [13]
70: Plant response rating, Barnyardgrass ([2]; 250 g ai/ha) | Kochia plant response rating (0 to 100 scale, 0 is no effect, 100 is complete control) (Kochia (Kochia scoparia) [14]) | Ragweed plant response rating (0 to 100 scale, 0 is no effect, 100 is complete control) [18]
60: Plant response rating, Ryegrass, Italian [4] | Galium plant response rating [8] | Plant response rating, Galium [8] | Plant response rating, Blackgrass [9] | Wheat plant response rating [11] | Pigweed plant response rating (0 to 100 scale, 0 is no effect, 100 is complete control) [16]
50: Plant response rating, Kochia (Kochia (Kochia scoparia) [5]) | Plant response rating, Pigweed [7] | Blackgrass plant response rating [9] | Plant response rating, Ragweed [12] | Plant response rating, Kochia (Kochia (Kochia scoparia) [14]) | Plant response rating, Pigweed [16]
20: Plant response rating, Ragweed [18]

O=C1NCC(c2cccc(OCC(F)F)c2)C1C(=O)Nc1ccc(F)c(F)c1F (stereo not drawn) [Compound 407]
60: Plant response rating, Barnyardgrass ([2]; 500 g ai/ha) | Barnyardgrass plant response rating [10]
0: Plant response rating, Sedge, Umbrella ([1]; 500 g ai/ha) | Ryegrass, Italian plant response rating [4] | Plant response rating, Ryegrass, Italian [4] | Kochia plant response rating (Kochia (Kochia scoparia) [5]) | Pigweed plant response rating [7] | Plant response rating, Pigweed [7] | Galium plant response rating [8] | Plant response rating, Galium [8] | Wheat plant response rating [11] | Plant response rating, Wheat [11] | Corn plant response rating (corn (Zea mays)) | Ragweed plant response rating [12] | Plant response rating, Ragweed [12] | Plant response rating, Ryegrass, Italian [13] | Ryegrass, Italian plant response rating (0 to 100 scale, 0 is no effect, 100 is complete control) [13] | Plant response rating, Kochia (Kochia (Kochia scoparia) [14]) | Kochia plant response rating (0 to 100 scale, 0 is no effect, 100 is complete control) (Kochia (Kochia scoparia) [14]) | Plant response rating, Pigweed [16] | Plant response rating, Ragweed [18] | Ragweed plant response rating (0 to 100 scale, 0 is no effect, 100 is complete control) [18]
40: Plant response rating, Kochia (Kochia (Kochia scoparia) [5]) | Plant response rating, Corn (corn (Zea mays))
20: Pigweed plant response rating (0 to 100 scale, 0 is no effect, 100 is complete control) [16]
80: Plant response rating, Foxtail, Giant [15] | Barnyardgrass plant response rating (0 to 100 scale, 0 is no effect, 100 is complete control) [17]
90: Foxtail, Giant plant response rating (0 to 100 scale, 0 is no effect, 100 is complete control) [15]
10: Plant response rating, Rice (rice (Oryra sativa); 500 g ai/ha)
70: Foxtail, Giant plant response rating [6] | Plant response rating, Foxtail, Giant [6] | Plant response rating, Barnyardgrass [10] | Plant response rating, Barnyardgrass [17]
50: Plant response rating, Blackgrass [9]
30: Blackgrass plant response rating [9]
100: Plant response rating, Ducksalad ([3]; 500 g ai/ha)

O=C1NCC(c2ccc(F)c(F)c2)C1C(=O)Nc1ccc(F)cc1Cl (stereo not drawn) [Compound 411]
98: Plant response rating, Ducksalad ([3]; 500 g ai/ha)
70: Plant response rating, Barnyardgrass [10] | Plant response rating, Barnyardgrass [17]
40: Foxtail, Giant plant response rating [6] | Barnyardgrass plant response rating [10]
0: Plant response rating, Rice (rice (Oryra sativa); 500 g ai/ha) | Plant response rating, Sedge, Umbrella ([1]; 500 g ai/ha) | Ryegrass, Italian plant response rating [4] | Plant response rating, Ryegrass, Italian [4] | Kochia plant response rating (Kochia (Kochia scoparia) [5]) | Plant response rating, Kochia (Kochia (Kochia scoparia) [5]) | Pigweed plant response rating [7] | Plant response rating, Pigweed [7] | Blackgrass plant response rating [9] | Plant response rating, Blackgrass [9] | Wheat plant response rating [11] | Plant response rating, Wheat [11] | Corn plant response rating (corn (Zea mays)) | Plant response rating, Corn (corn (Zea mays)) | Ragweed plant response rating [12] | Plant response rating, Ragweed [12] | Plant response rating, Ryegrass, Italian [13] | Ryegrass, Italian plant response rating (0 to 100 scale, 0 is no effect, 100 is complete control) [13] | Plant response rating, Kochia (Kochia (Kochia scoparia) [14]) | Kochia plant response rating (0 to 100 scale, 0 is no effect, 100 is complete control) (Kochia (Kochia scoparia) [14]) | Plant response rating, Pigweed [16] | Plant response rating, Ragweed [18] | Ragweed plant response rating (0 to 100 scale, 0 is no effect, 100 is complete control) [18]
10: Pigweed plant response rating (0 to 100 scale, 0 is no effect, 100 is complete control) [16]
30: Galium plant response rating [8]
20: Plant response rating, Barnyardgrass ([2]; 500 g ai/ha)
80: Plant response rating, Foxtail, Giant [6] | Plant response rating, Foxtail, Giant [15] | Barnyardgrass plant response rating (0 to 100 scale, 0 is no effect, 100 is complete control) [17]
50: Plant response rating, Galium [8]
90: Foxtail, Giant plant response rating (0 to 100 scale, 0 is no effect, 100 is complete control) [15]
